Results from article PMC11329928, “Design, synthesis and structure-activity relationship (SAR) studies of an unusual class of non-cationic fatty amine-tripeptide conjugates as novel synthetic antimicrobial agents” (Frontiers in Pharmacology, 2024).
Structures can show the parent of a compound that is named as a salt.

How the values were obtained:
[1] = test system: Streptococcus pneumoniae R6; assay: Growth inhibition / lysis screening of planktonic cultures (OD550/600); format: cell-based; set-up: key: (+++) full inhibition; (++) partial inhibition; (+) growth retardation; -: (−) no effect; settings: S. pneumoniae R6, 50 and 100 μM compound added at early logarithmic phase (T1), OD550/600 followed 10 h, 37°C
Method: (§1) Planktonic cultures of selected pathogens (S. pneumoniae R6, S. pyogenes ^T, Staphylococcus aureus ^T, Escherichia coli DH10B, and Pseudomonas aeruginosa PAO1 strains) on early logarithmic-phase (T1) were assayed for their sensitivity to a broad range of DICAM compounds, as indicated in Table 1. Their bacteriostatic or lytic effect was first tested by measuring the variation of the OD550/600 as a function of time (10 h) when (50/100 μM) DICAMs were added, compared to untreated controls. The screening results, summarized in Table 1, evidenced that a potent antimicrobial activity may exist even when the negative charge of the peptide was higher than in the prototype compounds.
(§2) Susceptibility to DICAMs was first tested by growth-inhibition assays at 50 and 100 μM of compound. Briefly, working solutions at 5 mM or 10 mM DICAM in pure DMSO were prepared from DICAM stocks (40 mM in pure DMSO) and diluted with fresh culture medium to 5× the desired final concentration. Aliquots (50 µL) of these solutions were added to 200 µL of bacterium cultures grown to early exponential phase (OD550/600 c. a. 0.15–0.2 in sterile 96-well plates (Cultek, Spain). Incubation continued for 10 h at 37°C and turbidity (OD550/600) values were measured every 20 min to monitor growth and lysis, using a VersaMax microplate reader (Molecular Devices; United Kingdom). Next, the activity dependence on DICAM’s dose was examined by measuring the turbidity of treated and untreated cultures as a function of time. Also, the decay of bacterial viability (CFU/mL) at selected times of treatment was assessed by colony counting on LB-agar or TSA plates after overnight incubation at 37°C. By default, 10 μL of 10-fold serially diluted samples were plated, which set the lower detection limit at 10^2 CFU/mL (10^1 CFU/mL when 100 μL of the undiluted sample was seeded).

Streptococcus pyogenes T = assay: Growth inhibition screening of planktonic cultures (OD550/600); format: cell-based; set-up: key: (+++) full inhibition; (++) partial inhibition; (+) growth retardation; -: (−) no effect; settings: S. pyogenes T, 50 and 100 μM compound added at T1, OD550/600 followed 10 h, 37°C
Method: as §1, §2

S. pneumoniae D39 = format: cell-based, Streptococcus pneumoniae; settings: for SC (stationary concentration, Δlog = 0), S. pneumoniae D39 / EC50 / Δlogmax, S. pneumoniae D39: 1 h treatment, Hill fit; for SC (stationary concentration, Δlog = 0), S. pneumoniae D39: C + Y medium, added at T1, 10^7–10^8 CFU/mL, CFU vs untreated controls; for EC50 / Δlogmax, S. pneumoniae D39: C + Y; for EC50: read-out: K 1/2 (concentration yielding half-variation in Δlogmax), S. pneumoniae D39 (converted); for Δlogmax, S. pneumoniae D39: maximum variation in viability; for Reduction of the number of viable cells at 3 × SC, S. pneumoniae: after 1-h incubation at 3 × SC values
From the text: First, the substitution of the fatty amino chain of 18 carbon atoms of the reference compound DICAM 2 by either an OMe group (methylated tripeptide DICAM 5) or an amine with 12 carbon atoms (DICAM 9) abolished the activity against all three pathogens. However, the activity remained intact when the chain of the fatty amine of prototypes DICAMs 1 and 4 was two carbon atoms shorter (DICAM 10 and DICAM 12, respectively), based on S. pneumoniae and S. pyogenes results. […] Third, Glu and Ala were tolerated as C-terminal residues of the lipotripeptides. […] In addition, deletion of the C-terminal Glu (DICAM 13) eradicated the activity against S. pneumoniae and S. aureus. However, a delay and small inhibition of S. pyogenes ^T growth was still observed. Fourth, Glu (DICAMs 19 and 20) and Orn (DICAMs 21 and 22) were tolerated as N-terminal residues, with the impact of these modifications being pathogen-dependent. […] SAR studies continued by measuring the dose dependence of DICAM’s activity at T1 with all the compounds found to be active against S. pyogenes or S. aureus in the initial screening, and all but one compound in the case of S. pneumoniae. The OD values of bacterial cultures were monitored after DICAM addition, and the decrease in the number of viable bacteria was measured relative to controls (Figures 4–6; Supplementary Figure S1). As antibacterial efficacy may decline with the bacterium dose in the inoculum ([Belley et al., 2009]; [Udekwu et al., 2009]; [Luca et al., 2013]), the assays were performed using the bacterial concentrations necessary for the fluorescence experiments in Section 2.3 (10^7–10^8 CFU/mL). At these high bacterial densities, MICs were determined as the DICAM concentration at which bacteria neither grow nor are killed (the stationary concentration (SC)), following [Udekwu et al., 2009]. By fitting the logarithmic plot of cell viability decrease vs. the DICAM dose to a Hill function (see Section 5.2.3.1) we were able to determine the maximum variation in viability (Δlogmax = ∆log f - ∆log 0, where ∆log f and ∆log 0 are the upper and lower limits of Δlog) in the assay conditions, the SC concentration (Δlog = 0), the dose required for half-variation in Δlogmax (K 1/2), and the cooperativity of the antimicrobial effect (N H).
as §2
As antibacterial efficacy may decline with the bacterium dose in the inoculum ([Belley et al., 2009]; [Udekwu et al., 2009]; [Luca et al., 2013]), activity assays were performed using the bacterial concentrations required for the fluorescence experiments in Section 2.3 (10^7–10^8 CFU/mL). At such bacterial densities, MICs were determined as the DICAM concentration at which bacteria neither grow nor are killed under assay conditions (the stationary concentration (SC)), as indicated in Section 2.2. […]

[2] = test system: human fetal lung fibroblasts IMR-90; format: cell-based; settings: 48 h
Method: DICAM’s cytotoxicity was determined employing a modified MTT assay as described elsewhere ([Antúnez-Mojica et al., 2016]) using human lung carcinoma epithelial cells A549, human fetal lung fibroblasts IMR-90, and human HeLa cervix carcinoma cells treated with increasing concentrations of DICAMs (0.8–200 µM range). A549 cells were grown in RPMI 1640 (Gibco; Fisher Scientific, Spain) supplemented with 10% FCS, 2 mM glutamine, 100 IU/mL penicillin and 100 μg/mL streptomycin. IMR-90 and HeLa cells were cultured in DMEM (Gibco; Fisher Scientific, Spain) supplemented with 10% FCS, 2 mM L-glutamine, 1 mM pyruvate, […] penicillin, 100 μg/mL streptomycin and 40 μg/mL gentamycin. Cell viability was assessed after 48 h exposure to DICAMs. Vinblastine was used as a positive control. IC50 value is the concentration that gives 50% inhibition of cell growth and was determined using SigmaPlot (Systat) fitting to a Four Parameter Logistic curve.

[3] = S. pneumoniae D39, 50 μM (Supplementary Figure S1F), C+Y, 37°C
[4] = S. pneumoniae D39, within 60 min

| SMILES | Growth halt or lysis (50/100 μM), Spn [1] | Growth halt or lysis (50/100 μM), Spy T (Streptococcus pyogenes T) | SC (stationary concentration, Δlog = 0), S. pneumoniae D39 (S. pneumoniae D39; 37°C) | EC50 (S. pneumoniae D39; 37°C) | Time required to reduce the viability by 99.99% (S. pneumoniae D39; [3]) | Viability decrease in 1 h (S. pneumoniae D39; [3]) | Δlogmax, S. pneumoniae D39 (S. pneumoniae D39; 37°C) | IC50 [2] | Reduction of the number of viable cells at saturating doses (S. pneumoniae D39; [4]) | Reduction of the number of viable cells at 3 × SC, S. pneumoniae (S. pneumoniae D39) | Cell killing after 60 min of incubation (S. pneumoniae D39; [3]) | Time to nearly sterilize the culture (S. pneumoniae D39; S. pneumoniae D39, 50 μM, C+Y, 37°C, legend of Supplementary Figure S1F) | Bacterial viability reduction at ≈ 5 μM (S. pneumoniae D39; S. pneumoniae D39, within 60 min, ≈ 5 μM) | Bacterial viability reduction at 10 μM (S. pneumoniae D39; S. pneumoniae D39, within 60 min, 10 μM) |
| --- | --- | --- | --- | --- | --- | --- | --- | --- | --- | --- | --- | --- | --- | --- |
| CCCCCCCCCCCCCCCCCCNC(=O)[C@H](CCC(=O)O)NC(=O)[C@H]1CCCN1C(=O)[C@H](CC(N)=O)NC(=O)OCc1ccccc1 [DICAM 1, Cbz-Asn- Pro -Glu-NH-C18H37] | +++ | +++ | 2 ± 0.2 µM | 3.8 ± 0.2 µM | 2 to 2.5 h | ≈ 90% | 2.05 ± 0.03 logarithmic units | 39 ± 1 µM |  |  |  |  |  |  |
| CCCCCCCCCCCCCCCCCCNC(=O)[C@H](CCC(=O)O)NC(=O)[C@H]1CCCN1C(=O)[C@@H](N)CC(N)=O [DICAM 2, Asn- Pro -Glu-NH-C18H37 ·HCl] | +++ | +++ | 4.1 ± 0.6 µM | 10.7 ± 0.4 µM |  |  | 4.6 ± 0.1 logarithmic units | 46.7 ± 0.7 µM | ≥ 4.6 log-units | 99.2%–99.8 |  |  |  |  |
| CCCCCCCCCCCCCCCCCCNC(=O)[C@H](CCC(=O)O)NC(=O)[C@H]1CCCN1C(=O)[C@H](C)NC(=O)OCc1ccccc1 [DICAM 3, Cbz-Ala- Pro -Glu-NH-C18H37] | +++ | +++ | 6.5 ± 0.5 µM | 7.8 ± 0.4 µM | 2 to 2.5 h | ≈ 90% | 1.51 ± 0.04 logarithmic units | 75 ± 13 µM |  |  |  |  |  |  |
| CCCCCCCCCCCCCCCCCCNC(=O)[C@H](CCC(=O)O)NC(=O)[C@H]1CCCN1C(=O)[C@H](C)N [DICAM 4, Ala- Pro -Glu-NH-C18H37 ·HCl] | +++ | +++ | 4 ± 1.5 µM | 13 ± 2 µM |  |  | 6.0 ± 0.4 logarithmic units | 65 ± 3 µM | ≥ 4.6 log-units | 99.2%–99.8 | ≥ 99.999% | less than 1 h |  |  |
| CCCCCCCCCCCCCCCCNC(=O)[C@H](CCC(=O)O)NC(=O)[C@H]1CCCN1C(=O)[C@H](CC(N)=O)NC(=O)OCc1ccccc1 [DICAM 10, Cbz-Asn- Pro -Glu-NH-C16H33] | +++ | +++ | 3.4 ± 0.5 µM | 6.5 ± 0.3 µM | 2 to 2.5 h | ≈ 90% | 3.13 ± 0.06 logarithmic units | 45 ± 1 µM |  |  |  |  |  |  |
| CCCCCCCCCCCCCCCCCCNC(=O)[C@H](C)NC(=O)[C@H]1CCCN1C(=O)[C@H](C)N [DICAM 14, Ala- Pro -Ala-NH-C18H37 · HCl] | +++ | +++ | ∼33 µM |  |  |  |  | 7.69 ± 0.06 µM |  |  |  |  |  |  |
| CCCCCCCCCCCCCCCCCCNC(=O)[C@H](CCC(=O)O)NC(=O)[C@H]1CCCN1C(=O)[C@H](CCC(=O)O)NC(=O)OCc1ccccc1 [DICAM 19, Cbz-Glu- Pro -Glu-NH-C18H37] | +++ | +++ | 3.0 ± 0.8 µM | ~5 µM |  |  | 3.0 ± 0.2 logarithmic units | 44 ± 1 µM |  | 99.2%–99.8 |  |  | > 99.5% |  |
| CCCCCCCCCCCCCCCCCCNC(=O)[C@H](CCC(=O)O)NC(=O)[C@H]1CCCN1C(=O)[C@@H](N)CCC(=O)O [DICAM 20, Glu- Pro -Glu-NH-C18H37 · HCl] | +++ | +++ | 3.0 ± 0.7 µM | 4.4 ± 0.6 µM |  |  | 3.0 ± 0.1 logarithmic units | 78.6 ± 0.1 µM |  | 99.2%–99.8 |  |  |  | > 99.5% |
| CCCCCCCCCCCCCCCCCCNC(=O)[C@H](CCC(=O)O)NC(=O)[C@H]1CCCN1C(=O)[C@H](CCCN)NC(=O)OCc1ccccc1 [DICAM 21, Cbz-Orn- Pro -Glu-NH-C18H37] | +++ | +++ | 8 ± 1 µM | 9 ± 1 µM |  |  | 1.9 ± 0.1 logarithmic units | 86 ± 15 µM |  |  |  |  |  |  |
| CCCCCCCCCCCCCCCCCCNC(=O)[C@H](CCC(=O)O)NC(=O)[C@H]1CCCN1C(=O)[C@@H](N)CCCN [DICAM 22, Orn- Pro -Glu-NH-C18H37 · HCl] | +++ | ++ | 20 ± 8 µM | 22 ± 8 µM |  |  | 1.4 ± 0.4 logarithmic units | 58 ± 0.4 µM |  |  |  |  |  |  |
| CCCCCCCCCCCCCCCCCCNC(=O)[C@H](CCC(=O)O)NC(=O)[C@H]1CCCN1C(=O)[C@H](C)NC(C)=O [DICAM 24, Ac-Ala- Pro -Glu-NH-C18H37] | +++ | +++ | 4 ± 0.8 µM | 6.1 ± 0.6 µM |  |  | 2.2 ± 0.1 logarithmic units | 43.8 ± 0.6 µM |  |  |  |  |  |  |
